These results are taken from ChEMBL document CHEMBL1201862, “PubChem BioAssay data set” (2004).

Test systems include SK-MEL-5; RXF 393; K562; A498; Hs-578T; NCI/ADR-RES; SF-539; ACHN; CCRF-CEM; NCI-H23; MDA-MB-231; MOLT-4; HOP-92; MCF7; IGROV-1; SR; MDA-N; UACC-257; A549.
Experiment in all cases: growth of human tumour cells (NCI), 48 h

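Protocol summary: plate cells (96-well), add compound at 5 concentrations, incubate 48 h, interpolate endpoints linearly. Here, GI50 denotes the concentration required for 50% inhibition of growth.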 Active and inactive are the calls of the source. No stated cut-off is given here; in the data, active = GI50 up to about 1.1 µM and inactive = higher.

As for `CO[C@@H]1[C@H](O)CC[C@]2(CO2)[C@H]1[C@@]1(C)O[C@@H]1CC=C(C)C`, the GI50 in the experiment with SK-MEL-5, in the experiment on RXF 393, in the experiment on K562, in the experiment with A498, in the experiment with Hs-578T and with NCI/ADR-RES was > 200 µM (inactive) each time. Also, the GI50 with SF-539 was 134 µM (inactive); in the experiment with ACHN, 155 µM (inactive); in the experiment with CCRF-CEM, > 200 µM (inactive); in the experiment with NCI-H23 it was > 200 µM (inactive); in the experiment on MDA-MB-231, 157 µM (inactive); with MOLT-4, 80.5 µM (inactive). The GI50 with HOP-92 was > 200 µM (inactive); in the experiment on MCF7, > 200 µM (inactive); in the experiment with IGROV-1, 104 µM (inactive).
As for `C1CSCCSCCS1`, the GI50 with SR, with MDA-N, with SK-MEL-5, with RXF 393, in the experiment with UACC-257 and in the experiment with K562 was > 100 µM (inactive) throughout. For the same compound, the GI50 in the experiment on A549, in the experiment on NCI/ADR-RES, in the experiment on SF-539, with CCRF-CEM, with NCI-H23 and in the experiment on MDA-MB-231 was > 100 µM (inactive) throughout. In addition, the GI50 with MOLT-4, in the experiment on HOP-92, with MCF7 and with IGROV-1 was > 100 µM (inactive) throughout.
In the case of `O=C(NCc1cccc2ccccc12)N/N=C\c1ccc(Cl)cc1`, the GI50 is > 100 µM (inactive) in the experiment with SR; 9.82 µM (inactive) in the experiment on MDA-N; 46 µM (inactive) with SK-MEL-5; > 100 µM (inactive) in the experiment with RXF 393; > 100 µM (inactive) in the experiment with UACC-257; > 100 µM (inactive) in the experiment with K562. The GI50 in the experiment on NCI/ADR-RES, in the experiment on SF-539, in the experiment with ACHN, in the experiment on CCRF-CEM, with NCI-H23 and in the experiment with MOLT-4 was > 100 µM (inactive) in each case. In addition, the values for the GI50 with HOP-92, with MCF7 and in the experiment on IGROV-1 were 74.8 µM (inactive), 43.3 µM (inactive) and > 100 µM (inactive), respectively.
Regarding `CN(C)/C=N/C1CCC(C(C)(C)C)CC1` (centres undefined), the GI50 was 17.3 µM (inactive) in the experiment on SK-MEL-5; 19.2 µM (inactive) in the experiment with RXF 393; 15.7 µM (inactive) in the experiment with UACC-257; 15 µM (inactive) in the experiment on K562; 24 µM (inactive) in the experiment with A498; 20.7 µM (inactive) in the experiment on Hs-578T. Further, the GI50 in the experiment with A549 was 18.7 µM (inactive); in the experiment on NCI/ADR-RES it was 17.7 µM (inactive); in the experiment on SF-539, 17.5 µM (inactive); in the experiment with ACHN, 21.2 µM (inactive); in the experiment on NCI-H23, 17.8 µM (inactive); in the experiment on MDA-MB-231, 13.6 µM (inactive). Further, the GI50 with MOLT-4 was 12.9 µM (inactive); in the experiment on HOP-92, 15.5 µM (inactive); in the experiment on MCF7, 27.9 µM (inactive); in the experiment with IGROV-1, 21.5 µM (inactive).
In the case of `CNc1ccc([N+](=O)[O-])c2c(NCCCN(C)C)ccnc12`, the GI50 in the experiment on SR, with UACC-257, in the experiment on K562, with A549, in the experiment with SF-539 and in the experiment on ACHN was > 100 µM (inactive) throughout. In addition, the GI50 was > 100 µM (inactive) in the experiment with CCRF-CEM, 99.1 µM (inactive) in the experiment on NCI-H23, > 100 µM (inactive) in the experiment with MOLT-4 and > 100 µM (inactive) in the experiment on IGROV-1.
As to `O=S(=O)(c1cc(Cl)ccc1Cl)N1CCN(c2ccc(Cl)c(Cl)c2)CC1`, the GI50 is > 100 µM (inactive) with SR; 22.8 µM (inactive) in the experiment on SK-MEL-5; 21 µM (inactive) in the experiment with RXF 393; 33.3 µM (inactive) in the experiment on UACC-257; 91.6 µM (inactive) in the experiment with K562; 25.5 µM (inactive) in the experiment on A498. Further, the GI50 in the experiment on Hs-578T is 29.9 µM (inactive); in the experiment with A549, 35.7 µM (inactive); in the experiment on SF-539, 25.2 µM (inactive); with ACHN it was 37 µM (inactive); with CCRF-CEM it was 44.8 µM (inactive); with NCI-H23, 33.4 µM (inactive). Besides, the GI50 with MDA-MB-231 was > 100 µM (inactive); in the experiment on MOLT-4, > 100 µM (inactive); in the experiment with HOP-92 it was 18 µM (inactive); in the experiment with MCF7, > 100 µM (inactive); in the experiment on IGROV-1 it was 36.8 µM (inactive).
Turning to `CC1(C)[C@@H]2C[C@H]1[C@@H](Cc1cccc(C[C@H]3c4cc(-c5ccccn5)ncc4[C@H]4C[C@@H]3C4(C)C)c1)c1cc(-c3ccccn3)ncc12`, the GI50 is 6.22 µM (inactive) with MDA-N; 3.36 µM (inactive) in the experiment on SK-MEL-5; 4.39 µM (inactive) with RXF 393; 4.62 µM (inactive) with UACC-257; 1.19 µM (inactive) in the experiment with K562; > 44.4 µM (inactive) in the experiment with A498. Besides, the GI50 in the experiment on A549 was 2.76 µM (inactive); with NCI/ADR-RES, 3.78 µM (inactive); in the experiment with SF-539 it was 4 µM (inactive); in the experiment on ACHN it was 1.37 µM (inactive); with CCRF-CEM, 1.11 µM (active); in the experiment on NCI-H23, 4.9 µM (inactive). For the same compound, the GI50 is > 31.8 µM (inactive) in the experiment on MDA-MB-231; 1.41 µM (inactive) with MOLT-4; 9.04 µM (inactive) in the experiment with HOP-92; 4.92 µM (inactive) with MCF7; 3.49 µM (inactive) with IGROV-1.
As for `C#CCNC(CCCNC(=N)N)C(=O)O` (centres undefined), the GI50 in the experiment on SR, in the experiment on SK-MEL-5, in the experiment with RXF 393, in the experiment with UACC-257, with K562 and with A498 was > 100 µM (inactive) in each case. The GI50 in the experiment with Hs-578T, in the experiment with A549, in the experiment with NCI/ADR-RES, with ACHN, in the experiment with CCRF-CEM and in the experiment with NCI-H23 was > 100 µM (inactive) each time. Further, the GI50 in the experiment on MDA-MB-231, in the experiment on MOLT-4, in the experiment with HOP-92 and with IGROV-1 was > 100 µM (inactive) in each case.
On to `COc1ccc(CN=C(N)N)c2ccccc12`, for which the GI50 was 38.5 µM (inactive) with MDA-N; 20 µM (inactive) in the experiment on SK-MEL-5; 33.7 µM (inactive) with RXF 393; 47 µM (inactive) in the experiment with UACC-257; 24.1 µM (inactive) in the experiment on Hs-578T; 43.1 µM (inactive) in the experiment on A549. The GI50 in the experiment on NCI/ADR-RES was > 100 µM (inactive); in the experiment with SF-539, 19.2 µM (inactive); in the experiment with ACHN it was 35.6 µM (inactive); in the experiment with CCRF-CEM, 38.3 µM (inactive); in the experiment on NCI-H23, 24.3 µM (inactive); in the experiment with MOLT-4, 48.3 µM (inactive). In the experiment with MCF7, the GI50 is 36.7 µM (inactive).
In the case of `CC[C@]1(Cc2ccc(OC)c(OC)c2)C=[N+]([O-])O[C@H](OC2CCCC2(c2ccccc2)c2ccccc2)[C@@H]1OC(=O)C(C)(C)C` (some centres undefined), the GI50 was 7.93 µM (inactive) in the experiment with SR; 2.03 µM (inactive) in the experiment with SK-MEL-5; 1.63 µM (inactive) in the experiment with RXF 393; 3.5 µM (inactive) in the experiment with UACC-257; 3.61 µM (inactive) with K562; 2.72 µM (inactive) in the experiment on Hs-578T. Besides, the GI50 in the experiment with A549 is 3.11 µM (inactive); with NCI/ADR-RES, 2.29 µM (inactive); with ACHN it was 2.33 µM (inactive); in the experiment with CCRF-CEM, 2.6 µM (inactive); in the experiment on NCI-H23, 3.6 µM (inactive); with MDA-MB-231 it was 5.56 µM (inactive). For the same compound, the GI50 with MOLT-4 is 2.76 µM (inactive); with HOP-92, 4.14 µM (inactive); in the experiment with MCF7, 2.74 µM (inactive); in the experiment on IGROV-1, 2.62 µM (inactive).
For `C=CCn1c2ccccc2[n+]2cc([N+](=O)[O-])ccc12`, the GI50 in the experiment with MDA-N is 23.9 µM (inactive); in the experiment on SK-MEL-5 it was 22 µM (inactive); with RXF 393, 67.3 µM (inactive); with UACC-257, 21.3 µM (inactive); with K562, 13 µM (inactive); in the experiment on A498, 19.5 µM (inactive). Further, the GI50 in the experiment with A549 is > 100 µM (inactive); with NCI/ADR-RES, 57 µM (inactive); with SF-539 it was 32.7 µM (inactive); in the experiment with ACHN it was 33.1 µM (inactive); in the experiment on CCRF-CEM, 20.9 µM (inactive); in the experiment on NCI-H23 it was 20 µM (inactive). Moreover, the GI50 in the experiment on MDA-MB-231 is 34.7 µM (inactive); in the experiment with MOLT-4, 28.2 µM (inactive); in the experiment on HOP-92 it was 18.9 µM (inactive); in the experiment on MCF7 it was 26.3 µM (inactive); in the experiment with IGROV-1 it was 21.3 µM (inactive).
For `O=C(c1ccccc1)c1ccc2cccc(O)c2n1`, the GI50 in the experiment on SR is 15.4 µM (inactive); with SK-MEL-5, 22.9 µM (inactive); in the experiment with RXF 393 it was 16.4 µM (inactive); in the experiment on K562, 9.23 µM (inactive); in the experiment on A549, 33 µM (inactive); in the experiment on SF-539 it was 32.6 µM (inactive). The GI50 in the experiment on ACHN was 37.5 µM (inactive); with CCRF-CEM it was 1.19 µM (inactive); in the experiment with NCI-H23, 22.6 µM (inactive); in the experiment on MOLT-4, 5.27 µM (inactive); in the experiment with IGROV-1, 93.1 µM (inactive).
Regarding `CC(=O)CC(=O)Nn1c(-c2cccs2)nc2ccc(I)cc2c1=O`, the GI50 with SR was > 100 µM (inactive); in the experiment on MDA-N, > 100 µM (inactive); with SK-MEL-5, > 41.6 µM (inactive); with RXF 393, > 68.9 µM (inactive); with UACC-257 it was 33 µM (inactive); in the experiment with K562 it was > 65.9 µM (inactive). Further, the GI50 with A549 is > 64.3 µM (inactive); in the experiment with NCI/ADR-RES, > 46.5 µM (inactive); in the experiment with ACHN, > 57 µM (inactive); in the experiment with CCRF-CEM, > 46.8 µM (inactive); with NCI-H23, > 49 µM (inactive); with MOLT-4, > 70.1 µM (inactive). Also, the GI50 in the experiment with HOP-92 was > 50.1 µM (inactive); with MCF7 it was > 54.2 µM (inactive); in the experiment with IGROV-1 it was > 46.7 µM (inactive).
